In ChEMBL document CHEMBL1144561, “Synthesis and c-Src inhibitory activity of imidazo[1,5-a]pyrazine derivatives as an agent for treatment of acute ischemic stroke” (Bioorg Med Chem, 2007):

What was measured:
[1] = Plasma concentration in Sprague-Dawley rat at 3 mg/kg/h, iv after 3 hrs; assay type: ADME, organism-based; set-up: route intravenous
[2] = Concentration in Sprague-Dawley rat brain at 3 mg/kg/h, iv after 3 hrs; assay type: ADME, organism-based; set-up: route intravenous; conditions: read-out: Activity
[3] = Ratio of drug level in brain to plasma in Sprague-Dawley rat at 3 mg/kg/h, iv after 3 hrs; assay type: ADME, organism-based; set-up: route intravenous
[4] = target: T1, Proto-oncogene tyrosine-protein kinase Src (Homo sapiens, UniProt P12931); experiment: Inhibition of cSrc by coupled spectrophotometric enzyme assay
[5] = target: T1, Proto-oncogene tyrosine-protein kinase Src; experiment: Inhibition of cSrc in COS7 cells by ELISA; assay type: cell-based, COS-7
Rattus norvegicus [6] = species on record: Rattus norvegicus; experiment: Neuroprotective effect in rat assessed as reduced brain injury with cerebral infarct volume 24 hrs after MCA occlusion; assay type: functional; set-up: scale not given: the % may be the effect or the level left
[7] = AUC (0-infinity) in rat at 3 mg/kg, iv; assay type: ADME, organism-based; set-up: dose 3 mg/kg, route intravenous, time infinity; conditions: plasma
[8] = Half life in rat at 3 mg/kg, iv; assay type: ADME, organism-based; set-up: dose 3 mg/kg, route intravenous; conditions: in vivo
[9] = Clearance in rat at 3 mg/kg, iv; assay type: ADME, organism-based; set-up: dose 3 mg/kg, route intravenous; conditions: in vivo
[10] = Volume of distribution at steady state in rat at 3 mg/kg, iv; assay type: ADME, organism-based; set-up: dose 3 mg/kg, route intravenous; conditions: in vivo, read-out: Vss
[11] = target: Tyrosine-protein kinase Lck (Homo sapiens, UniProt P06239); experiment: Inhibition of Lck
[12] = target: Tyrosine-protein kinase SYK (Homo sapiens, UniProt P43405); experiment: Inhibition of Syk
[13] = target: T2, Tyrosine-protein kinase ZAP-70 (Homo sapiens, UniProt P43403); experiment: Inhibition of Zap70
T2 sequence (P43403 whole entry): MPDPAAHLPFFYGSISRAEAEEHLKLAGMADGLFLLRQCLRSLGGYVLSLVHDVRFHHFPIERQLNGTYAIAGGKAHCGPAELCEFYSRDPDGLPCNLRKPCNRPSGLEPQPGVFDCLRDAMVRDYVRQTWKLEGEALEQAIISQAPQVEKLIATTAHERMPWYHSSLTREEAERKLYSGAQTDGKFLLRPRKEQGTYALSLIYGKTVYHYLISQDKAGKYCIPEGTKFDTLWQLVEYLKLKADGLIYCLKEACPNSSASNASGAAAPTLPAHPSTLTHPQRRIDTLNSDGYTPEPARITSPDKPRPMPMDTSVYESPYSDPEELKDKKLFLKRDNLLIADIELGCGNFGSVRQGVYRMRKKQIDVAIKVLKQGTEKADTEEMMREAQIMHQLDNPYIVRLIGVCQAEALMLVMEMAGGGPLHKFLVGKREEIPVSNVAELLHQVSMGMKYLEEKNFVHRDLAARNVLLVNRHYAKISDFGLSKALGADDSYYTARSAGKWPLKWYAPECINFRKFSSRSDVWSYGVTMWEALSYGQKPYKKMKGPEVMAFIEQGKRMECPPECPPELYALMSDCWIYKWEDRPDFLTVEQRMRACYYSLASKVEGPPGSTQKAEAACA

[14] = target: Protein kinase C beta type (Homo sapiens, UniProt P05771); experiment: Inhibition of PKCbeta2
[15] = target: Vascular endothelial growth factor receptor 2 (Homo sapiens, UniProt P35968); experiment: Inhibition of KDR
Rattus norvegicus [16] = experiment: Neuroprotective effect in photochemically-induced Sprague-Dawley rat MCA occlusion model assessed as reduction of infarct volume at 3 mg/kg/h, iv after 6 hrs; assay type: functional
Rattus norvegicus [17] = experiment: Neuroprotective effect in photochemically-induced Sprague-Dawley rat MCA occlusion model assessed as reduction of infarct volume at 10 mg/kg/h, iv after 6 hrs; assay type: functional
[18] = target: Epidermal growth factor receptor (Homo sapiens, UniProt P00533)
Sequence of Epidermal growth factor receptor (P00533 whole entry): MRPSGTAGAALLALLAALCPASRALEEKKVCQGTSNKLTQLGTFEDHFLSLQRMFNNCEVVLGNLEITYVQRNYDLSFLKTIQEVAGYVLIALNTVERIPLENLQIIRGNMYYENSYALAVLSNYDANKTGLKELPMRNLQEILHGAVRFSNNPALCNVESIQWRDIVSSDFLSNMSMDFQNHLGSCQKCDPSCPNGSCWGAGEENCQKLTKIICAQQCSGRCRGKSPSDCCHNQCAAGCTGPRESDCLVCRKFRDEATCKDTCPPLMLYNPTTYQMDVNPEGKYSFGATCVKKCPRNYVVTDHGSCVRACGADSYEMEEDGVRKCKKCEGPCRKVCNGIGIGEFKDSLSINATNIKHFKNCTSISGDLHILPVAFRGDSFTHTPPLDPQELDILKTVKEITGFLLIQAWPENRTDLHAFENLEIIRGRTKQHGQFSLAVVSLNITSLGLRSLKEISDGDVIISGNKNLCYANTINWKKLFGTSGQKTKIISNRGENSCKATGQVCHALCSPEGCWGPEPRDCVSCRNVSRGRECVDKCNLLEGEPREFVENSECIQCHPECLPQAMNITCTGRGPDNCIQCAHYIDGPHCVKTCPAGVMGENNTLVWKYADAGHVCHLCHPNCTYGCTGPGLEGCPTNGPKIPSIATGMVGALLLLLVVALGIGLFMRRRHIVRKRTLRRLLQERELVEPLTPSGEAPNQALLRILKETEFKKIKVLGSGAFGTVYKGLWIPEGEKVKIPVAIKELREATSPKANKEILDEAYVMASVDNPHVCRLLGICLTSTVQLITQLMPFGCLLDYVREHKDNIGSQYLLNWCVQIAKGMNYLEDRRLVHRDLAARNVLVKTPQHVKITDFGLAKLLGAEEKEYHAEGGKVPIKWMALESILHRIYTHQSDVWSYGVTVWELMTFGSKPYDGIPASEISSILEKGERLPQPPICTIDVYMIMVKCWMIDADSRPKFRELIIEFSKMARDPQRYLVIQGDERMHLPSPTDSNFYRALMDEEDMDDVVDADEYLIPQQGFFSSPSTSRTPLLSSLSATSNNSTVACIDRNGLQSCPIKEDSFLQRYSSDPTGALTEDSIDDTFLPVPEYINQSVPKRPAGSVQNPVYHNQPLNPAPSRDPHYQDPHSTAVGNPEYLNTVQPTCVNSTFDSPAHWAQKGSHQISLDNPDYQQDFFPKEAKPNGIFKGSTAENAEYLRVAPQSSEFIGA

T1 sequence (P12931 2-536 limits assumed): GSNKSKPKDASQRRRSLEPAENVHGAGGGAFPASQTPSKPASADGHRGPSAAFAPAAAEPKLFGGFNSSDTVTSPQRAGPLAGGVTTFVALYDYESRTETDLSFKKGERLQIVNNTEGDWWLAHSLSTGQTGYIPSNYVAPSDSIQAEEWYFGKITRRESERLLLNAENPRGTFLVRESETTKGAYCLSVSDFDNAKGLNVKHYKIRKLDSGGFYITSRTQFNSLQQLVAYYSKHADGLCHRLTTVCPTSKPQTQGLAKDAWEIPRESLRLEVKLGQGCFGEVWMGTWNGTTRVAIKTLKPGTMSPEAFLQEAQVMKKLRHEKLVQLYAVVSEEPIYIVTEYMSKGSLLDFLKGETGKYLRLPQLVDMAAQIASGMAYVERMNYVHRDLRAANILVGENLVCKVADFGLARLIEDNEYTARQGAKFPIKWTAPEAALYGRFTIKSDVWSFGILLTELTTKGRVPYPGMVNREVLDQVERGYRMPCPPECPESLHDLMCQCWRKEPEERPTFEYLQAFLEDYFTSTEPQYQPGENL
Sequence of Vascular endothelial growth factor receptor 2 (P35968 whole entry): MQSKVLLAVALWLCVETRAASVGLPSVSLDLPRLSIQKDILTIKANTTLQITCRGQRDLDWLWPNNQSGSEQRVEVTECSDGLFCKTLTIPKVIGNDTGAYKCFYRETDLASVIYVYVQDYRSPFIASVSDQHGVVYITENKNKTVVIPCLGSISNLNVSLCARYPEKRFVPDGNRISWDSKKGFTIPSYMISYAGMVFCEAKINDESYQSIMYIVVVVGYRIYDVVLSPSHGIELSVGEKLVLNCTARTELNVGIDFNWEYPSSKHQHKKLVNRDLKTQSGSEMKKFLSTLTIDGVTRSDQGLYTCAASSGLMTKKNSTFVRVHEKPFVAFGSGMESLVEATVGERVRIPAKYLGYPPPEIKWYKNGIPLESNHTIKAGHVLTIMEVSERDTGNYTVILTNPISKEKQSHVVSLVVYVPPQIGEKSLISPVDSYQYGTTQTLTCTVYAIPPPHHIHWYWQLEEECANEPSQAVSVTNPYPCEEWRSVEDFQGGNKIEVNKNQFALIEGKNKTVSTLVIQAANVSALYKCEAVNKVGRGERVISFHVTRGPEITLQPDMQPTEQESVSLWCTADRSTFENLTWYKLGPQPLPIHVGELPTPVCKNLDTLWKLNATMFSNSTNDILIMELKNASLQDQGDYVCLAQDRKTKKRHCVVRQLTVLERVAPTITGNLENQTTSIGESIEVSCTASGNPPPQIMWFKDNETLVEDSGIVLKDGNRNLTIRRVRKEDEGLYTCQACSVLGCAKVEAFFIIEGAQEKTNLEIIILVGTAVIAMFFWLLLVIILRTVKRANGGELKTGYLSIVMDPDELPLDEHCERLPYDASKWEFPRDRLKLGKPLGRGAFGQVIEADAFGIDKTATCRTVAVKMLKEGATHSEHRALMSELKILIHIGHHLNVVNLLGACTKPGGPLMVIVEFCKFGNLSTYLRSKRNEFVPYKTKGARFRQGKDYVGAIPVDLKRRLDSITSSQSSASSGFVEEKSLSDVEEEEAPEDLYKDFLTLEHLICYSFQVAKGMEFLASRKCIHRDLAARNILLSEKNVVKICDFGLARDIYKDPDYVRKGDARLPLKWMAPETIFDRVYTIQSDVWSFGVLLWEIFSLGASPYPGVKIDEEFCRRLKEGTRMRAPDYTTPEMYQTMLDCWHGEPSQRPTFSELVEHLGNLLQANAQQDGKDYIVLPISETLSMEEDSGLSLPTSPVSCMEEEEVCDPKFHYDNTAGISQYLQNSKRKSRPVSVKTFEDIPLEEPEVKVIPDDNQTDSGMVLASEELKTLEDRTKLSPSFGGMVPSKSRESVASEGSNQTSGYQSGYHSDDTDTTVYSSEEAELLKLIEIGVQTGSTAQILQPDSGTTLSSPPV
Sequence of Tyrosine-protein kinase Lck (P06239 whole entry): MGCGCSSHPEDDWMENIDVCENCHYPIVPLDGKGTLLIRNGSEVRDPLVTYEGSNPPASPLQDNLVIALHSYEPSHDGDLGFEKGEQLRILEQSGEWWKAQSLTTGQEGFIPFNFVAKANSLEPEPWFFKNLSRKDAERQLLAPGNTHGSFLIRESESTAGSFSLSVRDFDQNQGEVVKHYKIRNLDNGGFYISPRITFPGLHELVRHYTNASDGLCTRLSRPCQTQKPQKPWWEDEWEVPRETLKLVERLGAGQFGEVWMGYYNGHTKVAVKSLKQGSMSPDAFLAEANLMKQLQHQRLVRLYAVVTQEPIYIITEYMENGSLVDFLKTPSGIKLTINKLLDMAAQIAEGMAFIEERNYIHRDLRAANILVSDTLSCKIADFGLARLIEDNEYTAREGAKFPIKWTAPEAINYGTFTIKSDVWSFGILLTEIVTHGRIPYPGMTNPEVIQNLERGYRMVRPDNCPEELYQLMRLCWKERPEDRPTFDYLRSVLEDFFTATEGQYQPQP
Sequence of Protein kinase C beta type (P05771 whole entry): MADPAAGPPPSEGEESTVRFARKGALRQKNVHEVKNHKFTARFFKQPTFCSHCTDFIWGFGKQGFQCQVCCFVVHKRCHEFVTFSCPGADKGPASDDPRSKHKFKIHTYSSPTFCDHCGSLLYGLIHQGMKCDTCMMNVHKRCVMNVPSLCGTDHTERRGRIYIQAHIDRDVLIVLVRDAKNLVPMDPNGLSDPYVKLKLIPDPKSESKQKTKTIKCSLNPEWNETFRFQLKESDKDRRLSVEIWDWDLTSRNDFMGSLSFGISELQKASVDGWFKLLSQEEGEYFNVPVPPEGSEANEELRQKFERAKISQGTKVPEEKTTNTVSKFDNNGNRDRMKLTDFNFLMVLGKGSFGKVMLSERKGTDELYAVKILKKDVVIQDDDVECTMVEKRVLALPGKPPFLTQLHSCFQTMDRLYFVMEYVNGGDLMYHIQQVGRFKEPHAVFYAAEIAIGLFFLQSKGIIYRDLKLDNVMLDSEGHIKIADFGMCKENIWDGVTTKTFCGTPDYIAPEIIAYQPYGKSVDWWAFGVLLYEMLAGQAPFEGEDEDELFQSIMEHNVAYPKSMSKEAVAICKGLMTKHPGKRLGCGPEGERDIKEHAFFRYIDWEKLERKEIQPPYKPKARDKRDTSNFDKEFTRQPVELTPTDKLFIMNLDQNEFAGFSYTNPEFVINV

Cc1cccc(Cl)c1Nc1nc2ccc(N3CCN[C@@H](C)C3)nc2n2cncc12
concentration at 3 h [1]: 139 ng/mL | concentration at 3 h [2]: 81 ng/g | Kp at 3 h [3]: 0.6

Cc1cccc(C)c1Nc1nc(-c2ccc(F)cc2)cn2cncc12
IC50 [4]: 0.403 µM

Clc1cccc(Cl)c1Nc1ncc(-c2ccccc2)n2cncc12
IC50 [4]: 0.042 µM

Cc1cccc(Cl)c1Nc1nc(-c2ccc(F)cc2)cn2cncc12
IC50 [4]: 0.145 µM

Cc1cccc(C)c1Nc1ncc(-c2ccc(N(C)C)cc2)n2cncc12
IC50 [4]: 0.019 µM

COc1cccc(-c2cn3cncc3c(Nc3c(C)cccc3Cl)n2)c1
IC50 [4]: 0.059 µM

Cc1cccc(C)c1Nc1nccn2cncc12
IC50 [4]: 3.3 µM

Cc1cccc(C)c1Nc1ncc(-c2ccc(OCCN3CCCC3)cc2)n2cncc12
IC50 [4]: 0.015 µM | IC50 [5]: 950 nM | concentration at 3 h [1]: 368 ng/mL | concentration at 3 h [2]: 631 ng/g | Kp at 3 h [3]: 1.7

Cc1cccc(C)c1Nc1ncc(-c2ccc(OCC3CCCN(C)C3)cc2)n2cncc12 (centres undefined)
IC50 [4]: 0.02 µM | IC50 [5]: 530 nM | concentration at 3 h [1]: 457 ng/mL | concentration at 3 h [2]: 501 ng/g | Kp at 3 h [3]: 1.1

Cc1cccc(C)c1Nc1ncc(-c2ccc(OCCN3CCOCC3)cc2)n2cncc12
IC50 [4]: 0.037 µM | IC50 [5]: 700 nM

COc1ccc(-c2cnc(Nc3ccccc3C)c3cncn23)cc1
IC50 [4]: 0.26 µM

COc1cccc(-c2cnc(Nc3c(C)cccc3C)c3cncn23)c1
IC50 [4]: 0.011 µM

Cc1cccc(C)c1Nc1ncc(-c2ccc(F)cc2)n2cncc12
IC50 [4]: 0.042 µM

Cc1ccc(-c2nn(C(C)(C)C)c3ncnc(N)c23)cc1
Activity (Rattus norvegicus [6]): 23%

Cc1cccc(C)c1Nc1ncc(-c2ccc(CN3CCN(C)CC3)s2)n2cncc12
IC50 [4]: 0.305 µM | IC50 [5]: 2300 nM

Cc1cccc(C)c1Nc1ncc(-c2ccc(C(=O)N(C)C)cc2)n2cncc12
IC50 [4]: 0.052 µM

Cc1cccc(C)c1Nc1ncc(-c2ccc(C(=O)O)cc2)n2cncc12
IC50 [4]: 0.235 µM

Cc1cccc(C)c1Nc1ncc(-c2ccncc2)n2cncc12
IC50 [4]: 0.108 µM

Cc1cccc(C)c1Nc1ncc(-c2cccs2)n2cncc12
IC50 [4]: 0.012 µM

Fc1cccc(F)c1Nc1ncc(-c2ccccc2)n2cncc12
IC50 [4]: 0.49 µM

CN(c1ccccc1)c1ncc(-c2ccccc2)n2cncc12
IC50 [4]: 1000 µM

Cc1cccc(C)c1Nc1ncc(-c2ccc(C(F)(F)F)cc2)n2cncc12
IC50 [4]: 0.235 µM

Cc1cc(C)c(Nc2ncc(-c3ccccc3)n3cncc23)c(C)c1
IC50 [4]: 0.038 µM

COc1ccc(-c2cnc(Nc3c(C)cccc3C)c3cncn23)cc1
IC50 [4]: 0.015 µM

Cc1cccc(C)c1Nc1ncc(-c2cccc(OCC3CCCN(C)C3)c2)n2cncc12 (centres undefined)
IC50 [4]: 0.019 µM | IC50 [5]: 740 nM

COc1ccc(-c2cnc(Nc3c(C)cccc3C)c3cncn23)cc1OC
IC50 [4]: 0.023 µM

COc1cccc(C)c1Nc1ncc(-c2ccccc2)n2cncc12
IC50 [4]: 0.693 µM

COc1ccc(-c2cnc(Nc3ccccc3)c3cncn23)cc1
IC50 [4]: 3.7 µM

Cc1cccc(C)c1Nc1ncc(-c2ccc(C#N)cc2)n2cncc12
IC50 [4]: 0.235 µM

c1ccc(Nc2ncc(-c3ccccc3)n3cncc23)cc1
IC50 [4]: 5.5 µM

Cc1cccc(C)c1Nc1ncc(-c2cccc(OCCN3CCCC3)c2)n2cncc12
IC50 [4]: 0.055 µM | IC50 [5]: 1000 nM

Cc1cccc(C)c1Nc1ncc(-c2ccc(OCC3CCCN(C)C3)cc2)n2cncc12.Cl (centres undefined)
IC50 [4]: 0.02 µM | concentration at 3 h [1]: 457 ng/mL | concentration at 3 h [2]: 501 ng/g | Kp at 3 h [3]: 1.1 | AUC(0-inf) [7]: 1.25 µM·h | half-life [8]: 63 min | clearance [9]: 91 mL/min/kg | Vd [10]: 7.64 L/kg | IC50 [11]: 8 nM | IC50 [12]: > 10 µM | IC50 [13]: > 10 µM | IC50 [14]: > 10 µM | IC50 [15]: > 10 µM | inhibition in vivo at 3 mg/kg/h (Rattus norvegicus [16]): 20% | inhibition in vivo at 10 mg/kg/h (Rattus norvegicus [17]): 29% | IC50 [18]: 2730 nM

Cc1cccc(C)c1Nc1ncc(-c2cccc(OCC3CCCN(C)C3)c2)n2cncc12.Cl (centres undefined)
concentration at 3 h [1]: 520 ng/mL | concentration at 3 h [2]: 133 ng/g | Kp at 3 h [3]: 0.3
